The values below come from ChEMBL document CHEMBL3507680, “University of Dundee, Gates Library screen for HepG2 cell viability”.

A short description of this data set: Human HepG2 cell viability assay in 384 well format. The class given is toxicity, cell-based. Also on record: dose 125 nL, time 70.5 hour; concentration not given beside the values. The following applies: HepG2 cells, read-out: Inhibition.

As to `O=C(NCc1cccnc1-n1cncn1)c1ccc2c(c1)CCO2`, the cytotoxicity at 70.5 h was -1.03%.
Regarding `Cc1cnn(CC2CN(Cc3nc(-c4cccnc4)no3)CCO2)c1` (configuration not stated), the cytotoxicity at 70.5 h is -0.171%.
As to `CC(C)c1nc2n(n1)CC(NCc1nnc(C3CC3)o1)CC2` (configuration not stated), the cytotoxicity at 70.5 h amounted to 0.876%.
The value for `CCc1nnc(CNC2CCc3nc(C(C)C)nn3C2)o1` (configuration not stated) was 0.155%; that for `OCCN1CCN(CC(O)c2ccc(OC(F)(F)F)cc2)CC1` (configuration not stated) was -2.1%; that for `Cc1nn(C)c(C)c1C1CCCN1CC(=O)Nc1ccc(Cl)cn1` (configuration not stated) was 2.19%.
For `Cc1cnn(CCC(=O)N2CCCC(c3nc(C)c(C)s3)C2)c1` (configuration not stated) the value was 1.92%; for `Cc1cc(C)n(CCC(=O)N2CCCC(c3cc(C(N)=O)[nH]n3)C2)n1` (configuration not stated), 29.3%; for `Cc1ccccc1CCC(=O)N1CCCC(c2cc(C(N)=O)[nH]n2)C1` (configuration not stated), 6.15%.
On to `COCCOc1ccccc1C(=O)N1CCCC(c2cc(C)[nH]n2)C1` (configuration not stated), for which the cytotoxicity at 70.5 h amounted to 0.71%.
With `CC(NC(=O)Nc1cccnc1N1CCCC1)c1ccn(C)c1` (configuration not stated), the cytotoxicity at 70.5 h was 25%.
For `CCCC(=O)N1CCN(CC(O)COCC)CC1` (configuration not stated) the value was 1.27%; for `Cc1ccc(N2CCCC(NCc3ccc4c(c3)CCO4)C2)nn1` (configuration not stated), 4.47%; for `Cc1cnn(CCC(=O)N2CCCC(c3ccn[nH]3)C2)c1` (configuration not stated), -1.8%.
In the case of `CC(=O)NCCNC(=O)CN1CCCC1c1c(C)nn(C)c1C` (configuration not stated), the cytotoxicity at 70.5 h was determined as 25.7%.
The value for `CCOCC(O)CN1CCN(C(=O)C2CCC2)CC1` (configuration not stated) was -3.91%; that for `CN(C)c1ncccc1CNC(=O)NCCN(C)C1CCCC1` was -0.0535%; that for `CN(Cc1coc(-c2ccccc2)n1)C1CCCN(c2cccnn2)C1` (configuration not stated) was -7.45%.
The value for `CC(C)n1cnnc1C1CCCN(C(=O)COCc2ccccc2)C1` (configuration not stated) was -5.17%; that for `Cc1nc(C)n(C2CCCN(C(=O)Cc3csc(C(C)C)n3)C2)n1` (configuration not stated) was -3.36%.
For `CN1N=C(C(=O)N2CCCC(n3ccnc3)C2)CCC1=O` (configuration not stated) the value was -7.88%; for `C1CC(c2noc(C3CC3)n2)N(Cc2nc(C3CC3)no2)C1` (configuration not stated), -10.7%; for `CC(C)c1nccn1C1CCCN(C(=O)C2=NN(C)C(=O)CC2)C1` (configuration not stated), -10.1%.
As to `COc1cccc(CC(=O)N2CCCC(c3nncn3C)C2)c1` (configuration not stated), the cytotoxicity at 70.5 h is -12.3%.
With `Cc1cc(NC(=O)NCc2cccnc2OC(C)C)no1`, the cytotoxicity at 70.5 h is -0.0866%.
As to `CS(=O)(=O)NCC1CCCN(C(=O)c2cccc(F)c2)C1` (configuration not stated), the cytotoxicity at 70.5 h is -6.44%.
Consider `CC(Cn1cccn1)NC(=O)N1CCCN(Cc2cccs2)CC1` (configuration not stated), for which the cytotoxicity at 70.5 h was -5.76%.
In the case of `COc1cccc(CCC(=O)N2CCCC(c3nncn3C)C2)c1` (configuration not stated), the cytotoxicity at 70.5 h was -7.27%.
The value for `CC(Cn1cccn1)NC(=O)N1CCN(Cc2ccsc2)CC1` (configuration not stated) was -1.89%; that for `O=C(Cc1c[nH]c2ccccc12)N1CCC(Nc2ccccc2)CC1` was -3.37%.
The value for `CCCc1nc(C)c(C(=O)NCCNc2ncccc2C#N)s1` was 0.537%; that for `Cc1nc(C(C)(C)C)sc1C(=O)NCCNc1ncccc1C#N` was -7.48%.
`Cc1ncc(C(=O)NCCNc2ncccc2C#N)s1`: the cytotoxicity at 70.5 h is -0.109%.
As to `Cc1nc(C)c(C(=O)NCCNc2ncccc2C(F)(F)F)s1`, the cytotoxicity at 70.5 h was -7.63%.
`COc1ccc(F)cc1C(=O)N1CCCC(CNS(C)(=O)=O)C1` (configuration not stated): the cytotoxicity at 70.5 h amounted to 1.51%.
For `CC(C)Oc1ncccc1CNC(=O)c1ccccn1` the value was -2.17%.
For `Cc1occc1CNC(=O)NCCN(C)C1CCCC1`, the cytotoxicity at 70.5 h is -0.13%.
`Cc1cnn(CC(C)NCc2csc(-c3ccco3)n2)c1` (configuration not stated): the cytotoxicity at 70.5 h amounted to 4.15%.
On to `COC(=O)C(c1cc(F)ccc1F)N(C)C(=O)c1cccnc1O` (configuration not stated), for which the cytotoxicity at 70.5 h was 0.116%.
The value for `Cc1cc(C)n(CC2CCCN2C(=O)c2ccc(C(N)=O)cn2)n1` (configuration not stated) was -1.95%.
In the case of `Cc1cc(C(=O)N2CCN(C(=O)Cc3ccccn3)CC2)c(C)s1`, the cytotoxicity at 70.5 h turned out to be 0.259%.
For `Cc1nn(C)c(C)c1CNCc1ccnc(N2CCOCC2)c1` the value was 31.5%; for `CC(=O)N1CCCN(C(=O)NCCc2cc(Cl)cc(Cl)c2)CC1`, -6.77%; for `COCc1nc(C(=O)N2CCCC2c2noc(C(C)C)n2)cs1` (configuration not stated), -0.699%.
The value for `CC(=O)N1CCCN(C(=O)NCCc2ccc(Cl)s2)CC1` was -1.97%.
The value for `CCc1noc(C(C)N2CCC(C(=O)Nc3cnn(CC)c3)CC2)n1` (configuration not stated) was 41.4%; that for `O=C(Cc1ccccn1)N1CCN(C(=O)c2cccc3[nH]ncc23)CC1` was 1.92%; that for `O=C(NS(=O)(=O)c1ccc2c(c1)OCCO2)c1ccc(Br)cc1F` was 5.66%.
In the case of `Cc1ccc(N2CCCC(NCC(=O)Nc3cc(C)no3)C2)nn1` (configuration not stated), the cytotoxicity at 70.5 h stood at 25.6%.
The value for `CCCc1nc(CN2CCOC(Cn3cncn3)C2)no1` (configuration not stated) was 18.1%; that for `CCc1n[nH]c(C2CN(C(=O)Cn3ccccc3=O)CCO2)n1` (configuration not stated) was 21.1%.
The value for `CCN(CCNC(=O)c1ccccc1OCCOC)C1CC1` was 54.8%; that for `O=C(c1cccc(CNCC2CNc3ccnn3C2)c1)N1CCCC1` (configuration not stated) was 16.7%; that for `CCOc1cc(/C=C/c2ncc(C(=O)O)s2)ccc1O` was 0.103%.
For `Cc1cnn(CCC(=O)N2CCCN(c3ncccc3C#N)CC2)c1` the value was 0.758%; for `CCCNC(=O)Cn1cc(-c2ccccc2)cn1`, 1.15%; for `CNC(=O)NC(=O)Cn1cc(-c2ccccc2)cn1`, -2.21%.
`Cc1nc(C)n(CC2CCCCN2CCC(=O)Nc2cc(C)on2)n1` (configuration not stated): the cytotoxicity at 70.5 h is -3.96%.
For `Cc1ccccc1Cc1cnc(NC(=O)C2CNC(=O)N2)s1` (configuration not stated) the value was 2.49%; for `Cc1ccc(Cc2cnc(NC(=O)C3CNC(=O)N3)s2)cc1F` (configuration not stated), -0.116%; for `Cc1cc(NC(=O)CCN2CCCC2Cn2cncn2)no1` (configuration not stated), 1.41%.
The value for `CC(C)Oc1ccccc1CNC(=O)N1CCC(n2cncn2)CC1` was 26.9%; that for `Cc1cnn(CCC(=O)N2CCN(c3ncccc3Cl)CC2)c1` was -0.781%; that for `CC(C)c1nc(C(=O)N2CCCC(n3cncn3)C2)c[nH]1` (configuration not stated) was -2.47%.
Regarding `c1ccc(-c2nc(CN3CCCC(Cn4cncn4)C3)no2)cc1` (configuration not stated), the cytotoxicity at 70.5 h was found to be 2.09%.
For `CN1CCCc2cc(CNC(=O)c3ccc(NC4CC4)nc3)ccc21` the value was -3.79%; for `Cc1nc(C)n(CC2CCCN(CCc3ccccn3)C2)n1` (configuration not stated), 28.4%.
In the case of `COc1ccc(OCCCN2CCOC(Cn3cccn3)C2)cc1` (configuration not stated), the cytotoxicity at 70.5 h is 15.4%.
The value for `Cc1ccc(NC2CCN(C(=O)CN(C)C3CC3)CC2)nn1` was -1.46%.
In the case of `Cn1cc(C(=O)CC2CCCN2C(=O)c2n[nH]c3ccccc23)cn1` (configuration not stated), the cytotoxicity at 70.5 h came out at 8.22%.
The value for `CCN(CCNC(=O)c1ccccc1Br)C1CC1` was -3.52%.
As to `CCNC(c1cccnc1)c1cc(C)cc(C)c1` (configuration not stated), the cytotoxicity at 70.5 h worked out at 2.24%.
As to `Cc1nn(C)c(Cl)c1C1CCCN1CCc1ccccn1` (configuration not stated), the cytotoxicity at 70.5 h is 1.44%.
The value for `CCNC(c1cccnc1)c1ccc(F)c(F)c1` (configuration not stated) was -2.78%.
With `Fc1ccc(OCCCN2CCOC(Cn3cncn3)C2)cc1` (configuration not stated), the cytotoxicity at 70.5 h is -5.61%.
The value for `Cc1cnn(CCC(=O)N2CCCN(c3cccnn3)CC2)c1` was -2.44%.
As for `Cc1cnc(CN(C)C2CCN(CCn3cc(C#N)cn3)C2)o1` (configuration not stated), the cytotoxicity at 70.5 h came to 7.37%.
Turning to `CCC1CN(CCNC(C)=O)CCN1CCOC` (configuration not stated), the cytotoxicity at 70.5 h is 2.28%.
Consider `CC(=O)N1CCN(C(=O)c2cnn(-c3ccccc3Cl)c2)CC1`, for which the cytotoxicity at 70.5 h worked out at 3.15%.
Regarding `CCOc1cccc2c1OCC(C(=O)NS(=O)(=O)c1ccc(Cl)cc1)=C2`, the cytotoxicity at 70.5 h amounted to 21.1%.
For `CCCN(Cc1ccccc1)Cn1nc(C)c2c(C)onc2c1=O` the value was 0.0673%; for `CCN(Cc1cccc(Cl)c1)Cn1nc(C)c2c(C)onc2c1=O`, 25.1%.
As to `c1ccc2sc(CN3CCOC(Cn4cccn4)C3)nc2c1` (configuration not stated), the cytotoxicity at 70.5 h turned out to be 24.8%.
In the case of `Cc1cnn(C2CCCN(C(=O)c3cnc4ccccc4n3)C2)c1` (configuration not stated), the cytotoxicity at 70.5 h was -7.22%.
For `Cc1cnn(CC2CCCN2C(=O)c2cn(-c3ccccc3)nc2C)c1` (configuration not stated) the value was 6.33%; for `Cc1cc(C)cc(N(C)S(=O)(=O)c2cc(C(=O)O)cs2)c1`, -6.25%; for `N#Cc1cc(NS(=O)(=O)c2ccc(C(=O)O)cc2F)ccc1F`, -1.12%.
Turning to `Cc1nc(CN2CCOC(CNc3cccnn3)C2)oc1C` (configuration not stated), the cytotoxicity at 70.5 h stood at 30.3%.
The value for `O=C(Cc1noc2ccccc12)N1CCCC1c1noc(C2CC2)n1` (configuration not stated) was 32.1%.
For `CC(C)(C)SCCCC(=O)N1CCC(Nc2cccnn2)CC1` the value was -6.39%; for `C1CC(NCc2nc(C3CC3)no2)CN(Cc2noc(C3CC3)n2)C1` (configuration not stated), 21.5%.
For `O=C(c1cccc(CN2CCCC2)c1)N1CCCC(n2cncn2)C1` (configuration not stated) the value was 16.1%; for `Cc1ccccc1CCNC(=O)C1CC(=O)N(CC(F)(F)F)C1` (configuration not stated), 26.6%.
For `CNS(=O)(=O)c1cccc(CNc2nccc(C(F)(F)F)n2)c1`, the cytotoxicity at 70.5 h turned out to be 53.4%.
As for `Cc1csc(N2CCN(C(=O)CCC(=O)c3ccc(C)s3)CC2)n1`, the cytotoxicity at 70.5 h was determined as 7.78%.
With `O=C(NCCNc1ncccn1)C1CCN(CC(F)(F)F)CC1`, the cytotoxicity at 70.5 h was -3.78%.
For `Cc1nc(-c2ccccc2)n(CC(=O)N(C(C)C)C(C)C)n1` the value was 2.39%.
The value for `CC(C)OCCCNC(=O)c1ccc(-c2ccco2)[nH]c1=O` was -2.82%; that for `O=C(NCCNc1ncccn1)C1CC(=O)N(CC(F)(F)F)C1` (configuration not stated) was -14.3%.
For `Cc1ccccc1CC(=O)N1CCN(C2CCOC2=O)CC1` (configuration not stated) the value was -5.25%; for `CC(C)COCC(NC(=O)c1ccccn1)c1ccco1` (configuration not stated), -10.5%.
Regarding `CCC(CC)NC(=O)Cn1nc(C)nc1-c1ccccc1`, the cytotoxicity at 70.5 h was -6.22%.
